Molecules are shown by their SMILES. Numbered stars: 1 amine (or outer) side, 2 acyl side, 3 side chain; on linkers, the order of the positions; unused ones are H or OH. Bridge positions count the residues as written; N and C are the ends. Square brackets hold non-standard residues; d marks the D form. Peptide text beside a SMILES is read from it. * marks the point of attachment. Phe(4-COOH) = N[C@@H](Cc1ccc(C(=O)O)cc1)C(=O)O; Bip = N[C@@H](Cc1ccc(-c2ccccc2)cc1)C(=O)O; Phe(3-OMe) = COc1cccc(C[C@H](N)C(=O)O)c1; Phe(4-CN) = N#Cc1ccc(C[C@H](N)C(=O)O)cc1; Phe(3-Me) = Cc1cccc(C[C@H](N)C(=O)O)c1; γGlu = O=C(O)[C@H](CCC(=O)[*:2])N[*:1]; βAsp = O=C(O)[C@H](CC(=O)[*:2])N[*:1]; Val(3-OH) = CC(C)(O)[C@H](N)C(=O)O; Cha = N[C@@H](CC1CCCCC1)C(=O)O; Cit = NC(=O)NCCC[C@H](N)C(=O)O; Carboxymethyl = O=C(O)C*; Orn = NCCC[C@H](N)C(=O)O; Aun = NCCCCCCCCCCC(=O)O; Dab = NCC[C@H](N)C(=O)O; Dap = NC[C@H](N)C(=O)O; AEEA = NCCOCCOCC(=O)O

The target in the assay is T1, PD-1/PD-L1 interaction (PE-labeled human PD-L1-Ig binding to Jurkat cell line over-expressing human PD-1) (Homo sapiens, UniProt Q15116).
T1 construct: expressed in transfected cells; host or cells: Jurkat
T1 sequence (Q15116 25-288): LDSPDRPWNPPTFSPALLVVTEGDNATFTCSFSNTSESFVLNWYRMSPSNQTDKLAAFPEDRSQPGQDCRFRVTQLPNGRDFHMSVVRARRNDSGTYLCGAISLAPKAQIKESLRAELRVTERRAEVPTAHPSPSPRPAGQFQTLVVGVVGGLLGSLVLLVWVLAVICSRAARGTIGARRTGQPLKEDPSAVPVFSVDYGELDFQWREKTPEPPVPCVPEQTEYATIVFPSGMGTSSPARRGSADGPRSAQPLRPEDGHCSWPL
As to the kind of experiment: Jurkat-PD-1 Cell Binding High-Content Screening Assay (CBA). To be noted: Jurkat cell line over-expressing human PD-1; PE-labeled PD-L1-Ig 20 nM final; read-out: Jurkat hPD1-PDL1 IC50. Format: cell-based. The method, then: Example 2: Jurkat-PD-1 Cell Binding High-Content Screening Assay (CBA)
Phycoerythrin (PE) was covalently linked to the Ig epitope tag of human PD-L1-Ig and fluorescently-labeled PD-L1-Ig was used for binding studies with a Jurkat cell line over-expressing human PD-1 (Jurkat-PD-1). Briefly, 8×10^3 Jurkat-hPD-1 cells were seeded into 384 well plates in 20 μl of DMEM supplemented with 10% fetal calf serum. 100 nl of compound was added to cells followed by incubation at 37° C. for 2 h. Then, 5 μl of PE-labeled PD-L1-Ig (20 nM final), diluted in DMEM supplemented with 10% fetal calf serum. After 1 hour incubation, cells were fixed with 4% paraformaldehyde in dPBS containing 10 μg/ml Hoechst 33342 and then washed 3× in 100 μl dPBS. Data was collected and processed using a Cell Insight NXT High Content Imager and associated software.
`Cc1cccc(C[C@@H]2NC(=O)[C@H](CC(=O)O)NC(=O)[C@H](Cc3ccc(OCC(=O)O)cc3)NC(=O)[C@H](CN)NC(=O)CSC[C@@H](C(=O)N[C@@H](CCN)C(=O)NCCCCCCCCCCCCC(=O)O)NC(=O)[C@H](C(C)O)NC(=O)[C@H](C(C)C)NC(=O)[C@H](CC3CCCCC3)NC(=O)[C@H](CCN)NC(=O)[C@@H](CC(C)C)NC(=O)[C@H](CCCN)NC(=O)[C@H](CCCNC(N)=O)NC(=O)[C@H](Cc3ccc(-c4ccccc4)cc3)NC(=O)[C@H](C(C)C)NC2=O)c1` (mixture of isomers) [Compound 3126]: the half-maximal inhibitory concentration (IC50) worked out at 68.6 nM.
The value for `Cc1cccc(C[C@@H]2NC(=O)[C@H](CC(=O)O)NC(=O)[C@H](Cc3ccc(OCC(=O)O)cc3)NC(=O)[C@H](CN)NC(=O)CSC[C@@H](C(=O)N[C@@H](C)C(=O)N[C@@H](CCC(=O)O)C(=O)NCC(=O)NCCCCCCCCCCC(=O)O)NC(=O)[C@H]([C@@H](C)O)NC(=O)[C@H](C(C)C)NC(=O)[C@H](CC3CCCCC3)NC(=O)[C@H](CCN)NC(=O)[C@@H](CC(C)C)NC(=O)[C@H](CCCN)NC(=O)[C@H](CCCNC(N)=O)NC(=O)[C@H](Cc3ccc(-c4ccccc4)cc3)NC(=O)[C@H](C(C)C)NC2=O)c1` [Compound 1000] ({CH2CO}-[Dap]Y(Carboxymethyl)D[Phe(3-Me)]V[Bip][Cit][Orn][dL][Dab][Cha]VTCAEG[Aun]-OH; thioether N-14) was 5.5 nM.
Turning to `COc1cccc(C[C@@H]2NC(=O)[C@H](CC(=O)O)NC(=O)[C@H](Cc3ccc(OCC(=O)O)cc3)NC(=O)[C@H](CN)NC(=O)CSC[C@@H](C(=O)N[C@@H](CCN)C(=O)NCCOCCOCC(=O)NCCCCCCCCCCC(=O)O)NC(=O)[C@H](CCCN)NC(=O)[C@H](C(C)C)NC(=O)[C@H](CC3CCCCC3)NC(=O)[C@H](CCN)NC(=O)[C@@H](CC(C)C)NC(=O)[C@H](CCCN)NC(=O)[C@H](Cc3ccc(O)cc3)NC(=O)[C@H](Cc3ccc(-c4ccccc4)cc3)NC(=O)[C@H](Cc3ccc(OCC(=O)O)cc3)NC2=O)c1` [Compound 1001] ({CH2CO}-[Dap]Y(Carboxymethyl)D[Phe(3-OMe)]Y(Carboxymethyl)[Bip]Y[Orn][dL][Dab][Cha]V[Orn]C[Dab][AEEA][Aun]-OH; thioether N-14), the IC50 came out at 7.2 nM.
Consider `Cc1cccc(C[C@@H]2NC(=O)[C@H](CC(=O)O)NC(=O)[C@H](Cc3ccc(OCC(=O)O)cc3)NC(=O)[C@H](CN)NC(=O)CSC[C@@H](C(=O)N[C@@H](C)C(=O)N[C@@H](CC(=O)O)C(=O)NCC(=O)NCCCCCCCCCCC(=O)O)NC(=O)[C@H]([C@@H](C)O)NC(=O)[C@H](C(C)C)NC(=O)[C@H](CC3CCCCC3)NC(=O)[C@H](CCN)NC(=O)[C@@H](CC(C)C)NC(=O)[C@H](CCCN)NC(=O)[C@H](CCCNC(N)=O)NC(=O)[C@H](Cc3ccc(-c4ccccc4)cc3)NC(=O)[C@H](C(C)C)NC2=O)c1` [Compound 1002] ({CH2CO}-[Dap]Y(Carboxymethyl)D[Phe(3-Me)]V[Bip][Cit][Orn][dL][Dab][Cha]VTCADG[Aun]-OH; thioether N-14), for which the IC50 was found to be 6 nM.
The value for `Cc1cccc(C[C@@H]2NC(=O)[C@H](CC(=O)O)NC(=O)[C@H](Cc3ccc(C(=O)O)cc3)NC(=O)[C@H](Cc3ccc(C#N)cc3)NC(=O)CSC[C@@H](C(=O)N[C@@H](CCN)C(=O)NCCCCCCCCCCC(=O)O)NC(=O)[C@H](CO)NC(=O)[C@H](C(C)(C)O)NC(=O)[C@H](CC3CCCCC3)NC(=O)[C@H](CCN)NC(=O)[C@@H](CC(C)C)NC(=O)[C@H](CCCN)NC(=O)[C@H](Cc3ccc(OCC(=O)O)cc3)NC(=O)[C@H](Cc3ccc(-c4ccccc4)cc3)NC(=O)[C@H](Cc3ccc(OCC(=O)O)cc3)NC2=O)c1` [Compound 1003] ({CH2CO}-[Phe(4-CN)][Phe(4-COOH)]D[Phe(3-Me)]Y(Carboxymethyl)[Bip]Y(Carboxymethyl)[Orn][dL][Dab][Cha][Val(3-OH)]SC[Dab][Aun]-OH; thioether N-14) was 14.8 nM; that for `Cc1cccc(C[C@@H]2NC(=O)[C@H](CC(=O)O)NC(=O)[C@H](Cc3ccc(OCC(=O)O)cc3)NC(=O)[C@H](CN)NC(=O)CSC[C@@H](C(=O)N[C@@H](C)C(=O)N[C@@H](CCC(=O)O)C(=O)NCCOCCOCC(=O)NCCCCCCCCCCC(=O)O)NC(=O)[C@H]([C@@H](C)O)NC(=O)[C@H](C(C)C)NC(=O)[C@H](CC3CCCCC3)NC(=O)[C@H](CCN)NC(=O)[C@@H](CC(C)C)NC(=O)[C@H](CCCN)NC(=O)[C@H](CCCNC(N)=O)NC(=O)[C@H](Cc3ccc(-c4ccccc4)cc3)NC(=O)[C@H](C(C)C)NC2=O)c1` [Compound 1004] ({CH2CO}-[Dap]Y(Carboxymethyl)D[Phe(3-Me)]V[Bip][Cit][Orn][dL][Dab][Cha]VTCAE[AEEA][Aun]-OH; thioether N-14) was 2.6 nM.
On to `Cc1cccc(C[C@@H]2NC(=O)[C@H](CC(=O)O)NC(=O)[C@H](Cc3ccc(OCC(=O)O)cc3)NC(=O)[C@H](CN)NC(=O)CSC[C@@H](C(=O)N[C@@H](C)C(=O)N[C@@H](CCC(=O)O)C(=O)NCCCCCCCCCCC(=O)O)NC(=O)[C@H]([C@@H](C)O)NC(=O)[C@H](C(C)C)NC(=O)[C@H](CC3CCCCC3)NC(=O)[C@H](CCN)NC(=O)[C@@H](CC(C)C)NC(=O)[C@H](CCCN)NC(=O)[C@H](CCCNC(N)=O)NC(=O)[C@H](Cc3ccc(-c4ccccc4)cc3)NC(=O)[C@H](C(C)C)NC2=O)c1` [Compound 1005] ({CH2CO}-[Dap]Y(Carboxymethyl)D[Phe(3-Me)]V[Bip][Cit][Orn][dL][Dab][Cha]VTCAE[Aun]-OH; thioether N-14), for which the IC50 is 1.1 nM.
For `Cc1cccc(C[C@@H]2NC(=O)[C@H](CC(=O)O)NC(=O)[C@H](Cc3ccc(OCC(=O)O)cc3)NC(=O)[C@H](CN)NC(=O)CSC[C@@H](C(=O)N[C@@H](C)C(=O)N[C@@H](CC(=O)O)C(=O)NCCCCCCCCCCC(=O)O)NC(=O)[C@H]([C@@H](C)O)NC(=O)[C@H](C(C)C)NC(=O)[C@H](CC3CCCCC3)NC(=O)[C@H](CCN)NC(=O)[C@@H](CC(C)C)NC(=O)[C@H](CCCN)NC(=O)[C@H](CCCNC(N)=O)NC(=O)[C@H](Cc3ccc(-c4ccccc4)cc3)NC(=O)[C@H](C(C)C)NC2=O)c1` [Compound 1006] ({CH2CO}-[Dap]Y(Carboxymethyl)D[Phe(3-Me)]V[Bip][Cit][Orn][dL][Dab][Cha]VTCAD[Aun]-OH; thioether N-14), the IC50 worked out at 9.2 nM.
The value for `Cc1cccc(C[C@@H]2NC(=O)[C@H](CC(=O)O)NC(=O)[C@H](Cc3ccc(OCC(=O)O)cc3)NC(=O)[C@H](CN)NC(=O)CSC[C@@H](C(=O)N[C@@H](C)C(=O)NCCOCCOCC(=O)N[C@@H](CCC(=O)O)C(=O)NCCCCCCCCCCC(=O)O)NC(=O)[C@H]([C@@H](C)O)NC(=O)[C@H](C(C)C)NC(=O)[C@H](CC3CCCCC3)NC(=O)[C@H](CCN)NC(=O)[C@@H](CC(C)C)NC(=O)[C@H](CCCN)NC(=O)[C@H](CCCNC(N)=O)NC(=O)[C@H](Cc3ccc(-c4ccccc4)cc3)NC(=O)[C@H](C(C)C)NC2=O)c1` [Compound 1007] ({CH2CO}-[Dap]Y(Carboxymethyl)D[Phe(3-Me)]V[Bip][Cit][Orn][dL][Dab][Cha]VTCA[AEEA]E[Aun]-OH; thioether N-14) was 7.9 nM.
On to `Cc1cccc(C[C@@H]2NC(=O)[C@H](CC(=O)O)NC(=O)[C@H](Cc3ccc(OCC(=O)O)cc3)NC(=O)[C@H](CN)NC(=O)CSC[C@@H](C(=O)N[C@@H](C)C(=O)N[C@@H](CC(=O)O)C(=O)NCCOCCOCC(=O)NCCCCCCCCCCC(=O)O)NC(=O)[C@H]([C@@H](C)O)NC(=O)[C@H](C(C)C)NC(=O)[C@H](CC3CCCCC3)NC(=O)[C@H](CCN)NC(=O)[C@@H](CC(C)C)NC(=O)[C@H](CCCN)NC(=O)[C@H](CCCNC(N)=O)NC(=O)[C@H](Cc3ccc(-c4ccccc4)cc3)NC(=O)[C@H](C(C)C)NC2=O)c1` [Compound 1008] ({CH2CO}-[Dap]Y(Carboxymethyl)D[Phe(3-Me)]V[Bip][Cit][Orn][dL][Dab][Cha]VTCAD[AEEA][Aun]-OH; thioether N-14), for which the IC50 was found to be 10.5 nM.
The value for `Cc1cccc(C[C@@H]2NC(=O)[C@H](CC(=O)O)NC(=O)[C@H](Cc3ccc(OCC(=O)O)cc3)NC(=O)[C@H](CN)NC(=O)CSC[C@@H](C(=O)N[C@@H](C)C(=O)N[C@@H](CC(=O)NCCOCCOCC(=O)NCCCCCCCCCCC(=O)O)C(=O)O)NC(=O)[C@H]([C@@H](C)O)NC(=O)[C@H](C(C)C)NC(=O)[C@H](CC3CCCCC3)NC(=O)[C@H](CCN)NC(=O)[C@@H](CC(C)C)NC(=O)[C@H](CCCN)NC(=O)[C@H](CCCNC(N)=O)NC(=O)[C@H](Cc3ccc(-c4ccccc4)cc3)NC(=O)[C@H](C(C)C)NC2=O)c1` [Compound 1010] ({CH2CO}-[Dap]Y(Carboxymethyl)D[Phe(3-Me)]V[Bip][Cit][Orn][dL][Dab][Cha]VTCA[βAsp][AEEA][Aun]-OH; thioether N-14) was 6.3 nM; that for `Cc1cccc(C[C@@H]2NC(=O)[C@H](CC(=O)O)NC(=O)[C@H](Cc3ccc(OCC(=O)O)cc3)NC(=O)[C@H](CN)NC(=O)CSC[C@@H](C(=O)N[C@@H](C)C(=O)N[C@@H](CCC(=O)NCC(=O)NCCCCCCCCCCC(=O)O)C(=O)O)NC(=O)[C@H]([C@@H](C)O)NC(=O)[C@H](C(C)C)NC(=O)[C@H](CC3CCCCC3)NC(=O)[C@H](CCN)NC(=O)[C@@H](CC(C)C)NC(=O)[C@H](CCCN)NC(=O)[C@H](CCCNC(N)=O)NC(=O)[C@H](Cc3ccc(-c4ccccc4)cc3)NC(=O)[C@H](C(C)C)NC2=O)c1` [Compound 1011] ({CH2CO}-[Dap]Y(Carboxymethyl)D[Phe(3-Me)]V[Bip][Cit][Orn][dL][Dab][Cha]VTCA[γGlu]G[Aun]-OH; thioether N-14) was 8.8 nM.

Values taken from patent US20260022142A1, “MACROCYCLIC IMMUNOMODULATORS” (Bristol-Myers Squibb Company, priority 2022, published 2026).
